Patent US20090048216A1, “INTRAVENOUS AND ORAL DOSING OF A DIRECT-ACTING AND REVERSIBLE P2Y12 INHIBITOR” (Portola Pharmaceuticals, Inc., priority 2007, published 2009)
“Also recorded” adds a separate entry of the source.

Assays:
[1] = one week, 40° C., 75% RH
[2] = target: T1, P2Y12 receptor (Homo sapiens, UniProt Q9H244); test: platelet ADP receptor binding assay (ARB): inhibition of [3H]2-MeS-ADP binding to platelets; conditions: whole platelets
T1 construct: endogenous in cells; host or cells: apyrase-washed human platelets (outdated from hospital blood banks, or fresh)
T1 sequence (Q9H244 whole entry): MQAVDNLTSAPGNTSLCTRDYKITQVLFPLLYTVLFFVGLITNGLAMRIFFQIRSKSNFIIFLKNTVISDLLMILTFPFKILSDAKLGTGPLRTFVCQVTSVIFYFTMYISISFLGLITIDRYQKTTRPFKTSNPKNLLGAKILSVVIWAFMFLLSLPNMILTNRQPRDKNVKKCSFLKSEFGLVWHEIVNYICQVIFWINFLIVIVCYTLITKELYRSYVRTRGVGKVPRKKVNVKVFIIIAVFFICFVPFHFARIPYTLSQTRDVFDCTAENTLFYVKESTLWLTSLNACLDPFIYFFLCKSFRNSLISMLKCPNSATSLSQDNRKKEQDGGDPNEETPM
Description: 1. The Ability of Candidate Molecules to Inhibit the Binding of [3H]2-MeS-ADP to the P2Y12 Receptor on Platelets was Determined Using a Radioligand Binding Assay.
Utilizing this assay the potency of inhibition of such compounds with respect to [^3H]2-MeS-ADP binding to whole platelets is determined. Under the conditions described in II (3) below, the binding of [^3H]2-MeS-ADP is solely due to the interaction of this ligand with the P2Y12 receptor, in that all the specific binding measured in this assay is compatable with a P2Y12 antagonist (i.e., the specific binding is reduced to background levels by competition with an excess of P2Y12 antagonist, with no competition of binding when a P2Y1 antagonist is pre-incubated with the platelet preparation). […]
A platelet ADP receptor binding assay (ARB) using the tritiated potent agonist ligand [3H]2-MeS-ADP (Jantzen, H. M. et al. (1999) Thromb. Hemost. 81:111-117) has been adapted to the 96-well microtiter format. […] Total binding is determined in the absence of test compounds. […] The platelet-bound radioactivity on the filtermats is determined in a scintillation counter (Microbeta 1450, Wallac Inc., Gaithersburg, Md.). Specific binding is determined by subtraction of non-specific binding from total binding, and specific binding in the presence of test compounds is expressed as % of specific binding in the absence of test compound dilutions. […]

[3] = test system: ADP-induced human platelet aggregation; test: Inhibition of ADP-mediated platelet aggregation in vitro (PRP assay); type: cell-based; conditions: human platelet-rich plasma
Description: For preparation of human platelet-rich plasma for aggregation assays, human venous blood was collected from healthy, drug-free volunteers into 0.38% sodium citrate (0.013 M, pH 7.0 final). […] This preparation of PRP can subsequently be used for aggregation assays in either a 96-well plate or standard cuvette aggregometry.
For cuvette light transmittance aggregation assays, serial dilutions (1:3) of test compounds were prepared in 100% DMSO in a 96 well V-bottom plate (final DMSO concentration in the cuvette was 0.6%). […] The aggregation reaction is recorded for ˜5 min, and maximum extent of aggregation is determined by the difference in extent of aggregation at baseline, compared to the maximum aggregation that occurs during the five minute period of the assay. Inhibition of aggregation was calculated as the maximum aggregation observed in the presence of inhibitor, compared to that in the absence of inhibitor. […]
Inhibition of ADP-dependent aggregation was also determined in 96-well flat-bottom microtiter plates using a microtiter plate shaker and plate reader similar to the procedure described by Frantantoni et al., Am. […] The OD of the samples is then determined at 450 nm using a microtiter plate reader (Softmax, Molecular Devices, Menlo Park, Calif.) resulting in the 0 minute reading. […]

[4] = Accelerated stability of solid forms
[5] = test system: collagen induced platelet aggregation; test: Ex vivo collagen-induced platelet aggregation after oral dosing, with or without aspirin; type: in vivo, human; conditions: aspirin alone, predosed for three days at 325 mg/day
From the text: In a further aspect of the study, the effect of aspirin and the compound together on the inhibition of collagen-induced platelet aggregation was investigated.

[6] = Pharmacokinetics of single oral liquid doses in human subjects; type: in vivo
[7] = test system: collagen-induced platelet thrombosis; test: Real Time Thrombosis Profiler (RTTP) ex vivo after oral dosing; type: in vivo, human; conditions: 6 hours post dosing
Description: Rhodamine 6G (1.25 μg/ml final concentration) was added to the blood, mixed by gentle inversion, and the tube was incubated at ˜37° C. for 20 min. Subsequently, the rhodamine-labeled blood was perfused through a rectangular glass capillary coated with type III collagen at an arterial shear rate (˜1600 sec^−1) and the extent of thrombus formation on the collagen surface was monitored for 5-7 min by the accumulation of fluorescently-labeled platelets using a video camera. The extent of the overall thrombotic process (e.g., accumulation of fluorescently-labeled platelets over time) was determined by analysis of various parameters derived from the curve generated from mean fluorescence intensity vs time (sec). These parameters may include slope, area under the curve, and endpoint.
In yet another part of the study, the effects of the oral treatments in the human subjects was investigated using a Real Time Thrombosis Profiler (RTTP) as the ex vivo assay method. The set up and principles of operation of the RTTP are depicted in FIGS. 26A, B, and C. There was a dose-dependent decrease in the RTTP collagen-induced platelet thrombosis for the subjects given the compound. A dose of 100 mg of the compound produced about a 70% inhibition. A dose of 30 mg of the compound produced a 53 percent inhibition.

[8] = Tolerability and safety of single intravenous doses in human subjects; type: in vivo
From the text: To determine the tolerability, the pharmacokinetic (PK) and pharmacodynamic (PD) effects of single ascending IV doses of a compound of Formula I (the potassium salt of polymorph B, or PRT128) in healthy subjects, ages 18-50.

[9] = Bleeding time (Surgicutt device) after IV infusion; type: in vivo, human
Description: Bleeding time was measured using the Surgicutt device at 25 min (Cmax) and 8 hrs post dose. […] However, this effect was reversed by 8 hrs post dosing.

[10] = Pharmacokinetics of single IV doses in human subjects; type: in vivo; conditions: IV 1-40 mg
[11] = test system: ADP induced platelet aggregation
Description: (§1) Human venous blood was collected in a plastic syringe and immediately transferred to a plastic tube containing a fixed amount of anticoagulant (e.g., 5 μM (final) of a proprietary Portola anticoagulant C921-78 (a factor Xa inhibitor (see, Betz A, Wong P W, Sinha U. Inhibition of factor Xa by a peptidyl-alpha-ketothiazole involves 2 steps: evidence for a stabilizing conformational change. Biochemistry. 1999; 38: 14582-14591)) and mixed gently by inversion. Platelet-rich plasma (PRP) was prepared by centrifugation of whole blood at 160×g for 20 minutes at room temperature. The PRP layer was removed, transferred to a new tube, and the platelet count was adjusted, if necessary, to achieve a platelet concentration of ˜3×10^8 platelets/ml using platelet-poor plasma (PPP). PPP is prepared by centrifugation of the remaining blood sample (after removal of PRP) for 20 minutes at 800×g. This preparation of PRP was used for standard light transmittance aggregometry assays. A fixed volume of PRP (0.3-0.5 mls) was transferred to an aggregometry cuvette, and the same volume of PPP was used to blank the machine. While stirring the PRP, a sufficient volume of adenosine diphosphate (ADP, Sigma-Aldrich) was added to achieve a final concentration of 10 μM in the cuvette, and the change in light transmittance was recorded for 6 minutes. The maximum extent of aggregation as well as the final (6 min after initiation of the aggregation reaction) extent of aggregation was determined from each reaction.
(§2) The compound of Formula I was the potassium salt (Polymorph B) dissolved in water.

[12] = test system: ADP-induced platelet aggregation; conditions: IV, at the higher dosages
Description: (§3) Human venous blood was collected in a plastic syringe and immediately transferred to a plastic tube containing a fixed amount of anticoagulant (e.g., 5 μM (final) of a proprietary Portola anticoagulant C921-78 (a factor Xa inhibitor (see, Betz A, Wong P W, Sinha U. Inhibition of factor Xa by a peptidyl-alpha-ketothiazole involves 2 steps: evidence for a stabilizing conformational change. Biochemistry. 1999; 38: 14582-14591)) and mixed gently by inversion. Platelet-rich plasma (PRP) was prepared by centrifugation of whole blood at 160×g for 20 minutes at room temperature. The PRP layer was removed, transferred to a new tube, and the platelet count was adjusted, if necessary, to achieve a platelet concentration of ˜3×10^8 platelets/ml using platelet-poor plasma (PPP). PPP is prepared by centrifugation of the remaining blood sample (after removal of PRP) for 20 minutes at 800×g. This preparation of PRP was used for standard light transmittance aggregometry assays. […] While stirring the PRP, a sufficient volume of adenosine diphosphate (ADP, Sigma-Aldrich) was added to achieve a final concentration of 10 μM in the cuvette, and the change in light transmittance was recorded for 6 minutes. The maximum extent of aggregation as well as the final (6 min after initiation of the aggregation reaction) extent of aggregation was determined from each reaction.

[13] = test system: ADP induced platelet aggregation; test: animal or person; conditions: Homo sapiens, po, 0.1 h, read-out: IC50 of inhibition of ADP-induced platelet aggregation vs plasma concentration (PK-PD), oral study, aggregation at 6 minutes, ex vivo
Description: as §1, §2

[14] = test system: ADP-induced platelet aggregation; test: animal or person; conditions: Homo sapiens, iv, 0.1 h, read-out: IC50 for inhibition of ADP-induced late (6 min) platelet aggregation vs plasma concentration (Emax model)
Description: as §3

[15] = Tolerability and safety of single oral doses in human subjects; conditions: oral doses 10-800 mg
Description: A single center, double-blind, placebo-controlled study of a compound of Formula I was conducted in human subjects. The compound of Formula I was the potassium salt (Polymorph B) dissolved in water.

With `CNc1cc2[nH]c(=O)n(-c3ccc(NC(=O)[N-]S(=O)(=O)c4ccc(Cl)s4)cc3)c(=O)c2cc1F.[Na+]` [amorphous form of the sodium salt] the “change in chemical purity in accelerated stability test” value [1] was “No change”.
For `CNc1cc2[nH]c(=O)n(-c3ccc(NC(=O)NS(=O)(=O)c4ccc(Cl)s4)cc3)c(=O)c2cc1F` [Example 2], the IC50 [2] was under 0.05 µM and the IC50 [3] was under 10 µM.
In the case of `CNc1cc2[nH]c(=O)n(-c3ccc(NC(=O)[N-]S(=O)(=O)c4ccc(Cl)s4)cc3)c(=O)c2cc1F.[K+]` [Form A], the “change in chemical purity in accelerated stability test” value [1] is reported as “No change” and the “stability of solid form” value [4] is reported as “stable”.
With ortho-acetylsalicylic acid [aspirin] the “reduction in collagen induced platelet aggregation assay” value [5] was about 40%.
In the case of `CNc1cc2[nH]c(=O)n(-c3ccc(NC(=O)[N-]S(=O)(=O)c4ccc(Cl)s4)cc3)c(=O)c2cc1F.[K+]` [PRT128], the “plasma PK increases with dose” value ([6]; oral, 10-100 mg) is reported as “dose proportional”, the half-life ([6]; plasma, single oral liquid dose, read-out: terminal half-life (converted)) is reported as about 12 h and the “inhibition of RTTP collagen-induced platelet thrombosis” value ([7]; oral 30 mg) is reported as 53%. The “inhibition of RTTP collagen-induced platelet thrombosis” value ([7]; oral 100 mg) was about 70%, the ECG ([8]; IV 1-40 mg) was “No significant changes” and the serious adverse events ([8]; IV 1-40 mg) was “No serious adverse events”. For the same compound, the “standard clinical chemistry, hematology and coagulation labs” value ([8]; IV 1-40 mg) was “no clinically significant changes or trends”, the vital signs ([8]; IV 1-40 mg) was “No significant changes or trends” and the tolerability ([8]; IV 1-40 mg over 20 minutes, human) was “well tolerated”. For the same compound, the tolerability ([8]; IV bolus up to 45 mg) was “equally well tolerated”, the “dose at which pre-defined bleeding time stopping criteria (>20 min and 3 fold prolongation from baseline) were reached” value [9] was 40 mg and the bleeding time ([9]; 25 min (Cmax)) was “prolonged dose-dependently”. For the same compound, the “bleeding time effect at 8 hrs” value ([9]; 8 hrs post dose, potassium salt) was “reversed; also recorded: returned to baseline”, the “bleeding time at potential clinically therapeutic anti-thrombotic level of 40%” value ([9]; listed as studied compound, potassium salt) was “without substantially affecting bleeding time” and the “bleeding time at potential clinically therapeutic anti-thrombotic level of 40%” value ([9]; potassium salt) was “did not increase bleeding time”. The “drug exposure with dose” value [10] was “dose proportional”, the “inhibition of ADP-induced platelet aggregation” value ([11]; oral 100 mg, four hours post dose) was 60% and the “IC50 of inhibition of ADP-induced platelet aggregation vs plasma concentration (PK-PD)” value ([11]; oral study, aggregation at 6 minutes, ex vivo, listed as potassium salt, potassium salt) was “≈ 450 ng/ml”. The “maximum inhibition of ADP-induced platelet aggregation measured at six minutes” value ([11]; oral, at the higher dosages) was 100%, the “dose achieving maximum effect (maximum amplitude aggregation)” value ([11]; oral, four hour time point) was “about 200 mg” and the “maximum inhibition of ADP-induced platelet aggregation measured at six minutes” value [12] was 100%. For the same compound, the IC50 [13] was about 0.451 µg/mL, the IC50 [14] was 0.601 µg/mL and the serious adverse events [15] was “no serious adverse events”. For the same compound, the tolerability [15] was “well tolerated”.
